In ChEMBL document CHEMBL1201862, “PubChem BioAssay data set” (2004):
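Dose response: 5 concentrations. Exposure: 48 h. Format: 96-well plates. Endpoint: linear interpolation; highest concentration if not reached. Abbreviation: GI50, concentration required for 50% inhibition of growth.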 Activity calls are given as the source filed them. Rule as the data show it: active = GI50 up to about 1.1 µM and inactive = higher.

Key:
Test in all cases: NCI anticancer screen, dose series, 48 h
MOLT-4 = test system: MOLT-4
SF-268 = test system: SF-268
A498 = test system: A498
786-0 = test system: 786-0
NCI-H460 = test system: NCI-H460
MCF7 = test system: MCF7
EKVX = test system: EKVX
U-251 = test system: U-251
Hs-578T = test system: Hs-578T
SK-OV-3 = test system: SK-OV-3
T47D = test system: T47D
NCI/ADR-RES = test system: NCI/ADR-RES
UACC-257 = test system: UACC-257
NCI-H522 = test system: NCI-H522
SNB-19 = test system: SNB-19
PC-3 = test system: PC-3
SK-MEL-2 = test system: SK-MEL-2
SR = test system: SR
UO-31 = test system: UO-31
RXF 393 = test system: RXF 393

Measured: GI50

Cc1ccc(OCC2OC(n3cnc4nc(N)nc(Cl)c43)CC2Oc2ccc(C)cc2)cc1 (centres undefined)
inactive: MOLT-4 4.51 µM | SF-268 15.4 µM | A498 28.2 µM | 786-0 22.1 µM | NCI-H460 21.4 µM | MCF7 15.1 µM | EKVX 24.5 µM | U-251 29.6 µM | Hs-578T 15.4 µM | SK-OV-3 33.9 µM | T47D 14.9 µM | NCI/ADR-RES 15.9 µM | UACC-257 34.1 µM | NCI-H522 15.7 µM | SNB-19 11.8 µM | PC-3 21.9 µM | SK-MEL-2 17.7 µM | SR 6.71 µM

CCOC(=O)c1nc2cc(C(F)(F)F)ccc2nc1Oc1ccc(OC)cc1
inactive: MOLT-4 45.5 µM | SF-268 > 100 µM | UO-31 > 100 µM | 786-0 > 100 µM | NCI-H460 70.8 µM | MCF7 > 100 µM | RXF 393 50.9 µM | EKVX > 100 µM | U-251 > 100 µM | Hs-578T > 100 µM | T47D > 100 µM | NCI/ADR-RES > 100 µM | UACC-257 > 100 µM | NCI-H522 72.4 µM | SNB-19 > 100 µM | PC-3 > 100 µM | SK-MEL-2 > 100 µM | SR 74.6 µM

Cc1cc(S(=O)(=O)Nc2nnc3ccccn23)c(S)cc1Cl
inactive: MOLT-4 71.6 µM | UO-31 > 100 µM | A498 25 µM | 786-0 > 100 µM | NCI-H460 40.1 µM | MCF7 > 100 µM | EKVX > 100 µM | U-251 47.9 µM | Hs-578T > 100 µM | T47D > 100 µM | NCI/ADR-RES > 100 µM | UACC-257 > 100 µM | NCI-H522 > 100 µM | SNB-19 > 100 µM | PC-3 > 100 µM | SK-MEL-2 79.4 µM | SR > 100 µM

CCOC(=O)/C=C/C1(CCOC(C)=O)CCCCC1
inactive: MOLT-4 > 10 µM | SF-268 > 10 µM | UO-31 > 10 µM | 786-0 > 10 µM | NCI-H460 > 10 µM | MCF7 > 10 µM | RXF 393 > 10 µM | EKVX > 10 µM | U-251 > 10 µM | Hs-578T > 10 µM | SK-OV-3 > 10 µM | T47D > 10 µM | NCI/ADR-RES > 10 µM | UACC-257 > 10 µM | NCI-H522 > 10 µM | SNB-19 > 10 µM | PC-3 > 10 µM | SK-MEL-2 > 10 µM | SR > 10 µM

O=C1N/C(=N/N=C\c2ccccc2)N/C1=C/c1ccc(Cl)cc1
inactive: MOLT-4 15.5 µM | SF-268 22.2 µM | UO-31 16.2 µM | 786-0 29.8 µM | NCI-H460 18.4 µM | MCF7 24.7 µM | RXF 393 21.2 µM | EKVX 19.4 µM | U-251 22.8 µM | Hs-578T 20.5 µM | SK-OV-3 20.7 µM | T47D 21 µM | NCI/ADR-RES 23.2 µM | UACC-257 43 µM | NCI-H522 18.5 µM | SNB-19 15.6 µM | PC-3 18.4 µM | SK-MEL-2 26.5 µM | SR 13.3 µM

CC1(C)CC(=O)c2c(nc3c(ccc4ccccc43)c2-c2ccc(NC(=O)CCCCCCCCC(=O)Nc3ccc(-c4c5c(nc6c4ccc4ccccc46)CC(C)(C)CC5=O)cc3)cc2)C1
inactive: MOLT-4 > 100 µM | SF-268 > 100 µM | UO-31 > 100 µM | 786-0 > 100 µM | NCI-H460 > 100 µM | MCF7 > 100 µM | EKVX > 100 µM | U-251 > 100 µM | Hs-578T > 100 µM | SK-OV-3 > 100 µM | T47D > 100 µM | NCI/ADR-RES > 100 µM | UACC-257 > 100 µM | NCI-H522 > 100 µM | SNB-19 > 100 µM | PC-3 > 100 µM | SK-MEL-2 > 100 µM | SR > 100 µM
